In US5679638A, “Method for treating a tumor with a chemotherapeutic agent” (Biopure Corporation, priority 1993, dated 1997):

Key:
FSaIIC tumor cells = assay: FSaIIC tumor excision / colony forming assay (tumor cell killing); format: in vivo, mouse; conditions: for FSaIIC cell killing by drug, dose dependence: drug alone, increasing dose; for Enhancement of tumor cell killing by UPHS at higher drug doses: higher doses of drug + UPHS vs drug alone
Experimental: The procedures and materials of Example I were employed, except as noted. In this Example, tumors were allowed to grow to approximately 100 mm^3 in volume, which took about one week after tumor cell implantation. At this time, 0.3 ml of UPHS was injected via the tail vein. Immediately afterward, PAM was administered by intraperitoneal injection. The animals were then allowed to breathe air or were placed in a circulating atmosphere of carbogen for 6 hours and then removed to air. The mice were sacrificed 24 hours after treatment to allow for full expression of drug cytotoxicity and repair of potentially lethal damage. The tumors were excised under sterile conditions and single cell suspensions were prepared for a colony forming assay. See Teicher, B. A. et al., "Approaches to Defining the Mechanism of Fluosol-DA 20%/Carbogen Enhancement of Melphalan Antitumor Activity", Cancer Res. 47:513-518 (1987); Teicher, B. A. et al., "Differential Enhancement of Melphalan Cytotoxicity in Tumor and Normal Tissue by Fluosol-DA and Oxygen Breathing", Int. J. Cancer 36:585-589 (1985); Teicher, B. A. et al., "Effects of Various Oxygenation Conditions on the Enhancement by Fluosol-DA of Melphalan Antitumor Activity", Cancer Res. 47:5036-5041 (1987); Teicher, B. A. and S. A. Holden, "A Survey of the Effect of Adding Fluosol-DA 20%/O2 to Treatment with Various Chemotherapeutic Agents", Cancer Treat. Rep. 71:173-177 (1987), Teicher, B. A. et al., "Effect of Various Oxygenation Conditions and Fluosol-DA on Cancer Chemotherapeutic Agents", Biomat., Art. Cells and Art. Organs 16:533-546 (1988). One week later, the plates were stained with crystal violet and colonies of more than 50 cells were counted.
The result for the tumor excision assays and bone marrow toxicity tests with PAM are plotted in FIG. 1 wherein the surviving fraction +SE of cells from the treated groups are compared to untreated controls.
The procedures and materials of Example II were employed except that CTX was administered instead of PAM.

[1] = system: bone marrow granulocyte-macrophage colony forming units (CFU-GM); assay: Bone marrow toxicity, CFU-GM colony forming assay; format: in vivo, mouse; conditions: drug + UPHS vs drug alone; PAM across entire dosage range
Experimental: The procedures and materials of Example I were employed, except as noted. In this Example, tumors were allowed to grow to approximately 100 mm^3 in volume, which took about one week after tumor cell implantation. At this time, 0.3 ml of UPHS was injected via the tail vein. Immediately afterward, PAM was administered by intraperitoneal injection. The animals were then allowed to breathe air or were placed in a circulating atmosphere of carbogen for 6 hours and then removed to air. The mice were sacrificed 24 hours after treatment to allow for full expression of drug cytotoxicity and repair of potentially lethal damage. The tumors were excised under sterile conditions and single cell suspensions were prepared for a colony forming assay. […] One week later, the plates were stained with crystal violet and colonies of more than 50 cells were counted.
Bone marrow toxicity was determined as follows. […] Colonies of at least 50 cells were scored on an acculite colony counter (Fisher, Springfield, N.J.). The results from three experiments, in which each group was measured in triplicate, were averaged. […]

FSaIIC fibrosarcoma [2] = conditions: cited from earlier work
FSaIIC fibrosarcoma [3] = assay: FSaIIC fibrosarcoma tumor growth delay; format: in vivo, mouse (male C3H/FeJ mice); conditions: PAM 10 mg/kg + Fluosol-DA, carbogen 1 hour

O=P1(N(CCCl)CCCl)NCCCO1 (stereo not shown) [CTX, Cyclophosphamide]
Increase in killing of FSaIIC cells by addition of UPHS (FSaIIC tumor cells; CTX 100 mg/kg + UPHS vs CTX alone): ~20 fold | Greater kill of FSaIIC tumor cells with combined treatment (FSaIIC tumor cells; CTX 500 mg/kg (highest dose) + UPHS vs CTX alone): about 9 fold | FSaIIC cell killing by drug, dose dependence (FSaIIC tumor cells): killed increasing numbers of FSaIIC cells with increasing doses | Enhancement of tumor cell killing by UPHS at higher drug doses (FSaIIC tumor cells): the differential between tumor cell kill by CTX alone and CTX plus UPHS decreased as the dose of CTX was increased | Increase in bone marrow CFU-GM killing / toxicity by addition of UPHS [1]: 2-3 fold | Duration of carbogen breathing necessary for significant enhancement of growth delay (FSaIIC fibrosarcoma [2]; FSaIIC, CTX): Six hours of carbogen breathing are necessary to obtain a significant enhancement in the growth delay

N[C@@H](Cc1ccc(N(CCCl)CCCl)cc1)C(=O)O [PAM, Melphalan]
Increase in tumor cell killing by addition of UPHS (FSaIIC tumor cells; PAM 10 mg/kg + UPHS vs PAM alone): ~10 fold | FSaIIC cell killing by drug, dose dependence (FSaIIC tumor cells): killed FSaIIC cells in a log-linear manner with increasing dose | Enhancement of tumor cell killing by UPHS at higher drug doses (FSaIIC tumor cells): the enhancement in tumor cell killing with the combination treatment disappeared | Increase in bone marrow CFU-GM killing / toxicity by addition of UPHS [1]: 3 fold | Tumor growth delay, with Fluosol-DA and carbogen (FSaIIC fibrosarcoma [3]): about 9.5 days | Effect of extending carbogen breathing to 6 hours on tumor growth delay (FSaIIC fibrosarcoma [2]; PAM + Fluosol-DA, carbogen 6 hours): did not alter the tumor growth delay | Tumor growth delay, PAM prepared in Fluosol-DA as a vehicle (FSaIIC fibrosarcoma [2]; PAM in Fluosol-DA vehicle, carbogen breathing): about 29.5 days
